Among the data in the Bradley open melting point set (2014) are melting point values, retold here.

“And” between values parts separate entries of the source, which are not always exact repeats. Equal values may be shown once. Where a name gives a salt, the structure may show the parent alone.

The term melting point denotes the temperature, or range, at which the solid turns liquid. The molecule `OCc1ccc(B(O)O)cc1` [4-(hydroxymethyl)benzeneboronic acid] showed a melting point of 280 °C.

Molecule `N#Cc1ccc(O)cc1` [4-Hydroxybenzonitrile] had a melting point of 112 °C.

Take `C=Cc1cccc([N+](=O)[O-])c1` [1-Nitro-3-vinylbenzene]: the melting point was -5 °C. Then `COc1cc(OC)c2c(c1Cl)O[C@]1(C2=O)C(OC)CC(=O)C[C@H]1C` (some centres undefined) [Griseofulvin], with 220 °C; and `OB(O)c1cccc2c1oc1ccccc12` [dibenzofuran-4-boronic acid], with 289 °C; and `CCCC=O` [butanal], with -97 °C. For the molecule `COC(=O)c1ccccc1` [Methyl benzoate], the melting point was -12 °C. Then `OC1CCCC1` [cyclopentanol], with -17.5 °C and -16.2 °C; and `O=C(O)C1CC1` [cyclopropanecarboxylic acid], with 18 °C and 18.5 °C and 16.8 °C. The result for `Cc1ccc(C(=O)c2ccccc2)cc1` [(4-Methylphenyl)(phenyl)methanone] reads 57 °C. Then `OCC(F)F` [2,2-difluoroethanol], with -28 °C; and `O=C(CCCN1CCC(O)(c2ccc(Cl)cc2)CC1)c1ccc(F)cc1` [haloperidol], with 148 °C; and `Sc1nccs1` [2-mercaptothiazole], with 79 °C. As for `N#Cc1ccc2cc[nH]c2c1` [indole-6-carbonitrile], the melting point was determined as 130 °C. The result for `COC(=O)n1ccc(C)n1` [methyl 3-methyl-1H-pyrazole-1-carboxylate] reads 33 °C; that for `CCCOC1CCC2(C)C(CC(=O)C3C2CCC2(C)C(OCCC)CCC32)C1` (centres undefined) [3,17-dipropoxyandrostan-7-one], 163 °C; that for `CC(=O)Oc1ccccc1C(=O)O` [acetylsalicylic acid], 135 °C. Then `CC(=O)Oc1cccc(C)c1` [m-tolyl_acetate], with 12 °C; and `CC1=NN(CN2CCCCC2)C(=O)/C1=N\Nc1ccc(Cl)cc1Cl`, with 123 °C.

For `Cc1cccs1` [2-methylthiophene], the melting point was -63 °C.

Consider `CC(=O)Nc1ccc(O)cc1` [acetaminophen], for which the melting point turned out to be 169 °C. The molecule `CCOc1ccccc1OCC` [1,2-diethoxybenzene] came in with a melting point of 44 °C. The result for `N#Cc1ccc(C(F)(F)F)cc1[N+](=O)[O-]` [2-nitro-4-(trifluoromethyl)benzonitrile] reads 42 °C. The molecule `OC1OC[C@@H](O)[C@H](O)[C@H]1O` (stereo partly drawn) [D-xylose] gave a melting point of 149 °C.

`CCCCCCCCCC(=O)O` [decanoic_acid] displayed a melting point of 32 °C.

Turning to `O=C1CCCCC1` [Cyclohexanone], the melting point is -32 °C and -31 °C. The result for `COC(=O)Cc1ccc(Cl)c(Cl)c1` [methyl 3,4-dichlorophenylacetate] reads 29 °C. For the molecule `CC1=C(CC(=O)O)c2cc(F)ccc2/C1=C\c1ccc(S(C)=O)cc1` (centres undefined) [sulindac], the melting point came to 184 °C. Then `CCCN(CCC)CCC` [tri-n-propylamine], with -93 °C; and `O=C1c2ccccc2C(=O)N1CCCCCCBr` [N-(6-bromohexyl)phthalimide], with 57 °C. In turn, `CC(=O)Br` [acetyl bromide] yielded a melting point of -96 °C. Then `COC(=O)c1cc(Br)ccc1NC(C)=O` [methyl 2-acetamido-5-bromobenzoate], with 134 °C; and `c1ccc2c(c1)ccc1c3ccccc3ccc21` [chrysene], with 255 °C. The result for `CC1CNCC(C)O1` (centres undefined) [2,6-Dimethylmorpholine] reads -85 °C.

`O=C(O)C1CCCC1` [cyclopentanecarboxylic acid] returned a melting point of 3.5 °C. The result for `Oc1ccc(Cl)c(Cl)c1` [3,4-Dichlorophenol] reads 67 °C.

Molecule `O=C(/C=C/c1ccc(O)cc1)c1ccccc1` [4-hydroxychalcone] came in with a melting point of 184 °C. The result for `CC(Br)C(Br)C(=O)O` (centres undefined) [2,3-dibromobutyric acid] reads 86 °C. The result for `CCCCCCCI` [1-iodoheptane] reads -48 °C; that for `Cc1cc(C)c(C)c(CCl)c1C` [2,3,5,6-tetramethylbenzyl chloride], 70 °C.

In the case of `O=C(CCl)c1ccccc1` [2-Chloro-1-phenylethanone], the melting point is 55 °C. Then `Cc1ccc(C(C)(C)C)cc1` [1-tert-Butyl-4-methylbenzene], with -52 °C; and `O=C(O)Cc1ccccc1` [phenylacetic acid], with 77.5 °C; and `CCCC=NO` [butyraldoxime], with -29 °C. Then `c1ccc2c(c1)c1ccccc1c1ccccc21` [triphenylene], with 199 °C and 196 °C and 197 °C; and `CN(C)C(=N)NC(=N)N` [Metformin], with 224 °C; and `Cc1cccc(Cl)c1Cl` [2,3-dichlorotoluene], with 6 °C. Then `CCCCCI` [1-iodopentane], with -86 °C; and `Cc1cc(C)nc(NS(=O)(=O)c2ccc(N)cc2)n1` [sulfamethazine], with 200 °C. `COc1ccc(-c2csc(/C(C#N)=C/c3ccc(Cl)cc3Cl)n2)cc1`: the melting point came to 143 °C. The result for `O=Cc1cccc([N+](=O)[O-])c1` [m-nitrobenzaldehyde] reads 59 °C; that for `C[C@@H]1O[C@H](O)[C@@H](O)[C@H](O)[C@H]1O` [Rhamnose], 122 °C.

In turn, `C1=CCCC=CCC1` [1,5-cyclooctadiene] had a melting point of -69 °C.

The molecule `COc1ccc(N/N=C2/C(=O)N(CO)N=C2C(F)(F)F)cc1` registered a melting point of 143 °C.

In turn, `O=C(O)c1cc(=O)[nH]c(=O)[nH]1` [Cholergol] gave a melting point of 345 °C.

Consider `CCCC(=O)Nc1ccc(OCC(O)CNC(C)C)c(C(C)=O)c1` (centres undefined) [acebutolol], for which the melting point amounted to 123 °C. Then `O=[N+]([O-])/C=C/c1ccc(Cl)c(Cl)c1` [3,4-dichloro-beta-nitrostyrene], with 93 °C; and `CCn1cc(C(=O)O)c(=O)c2ccc(C)nc21` [nalidixic acid], with 229 °C. Then `O=C1OC(=O)c2c(Cl)c(Cl)c(Cl)c(Cl)c21` [tetrachlorophthalic anhydride], with 256 °C; and `CCOCCOCCOCC` [diethylene glycol diethyl ether], with -44 °C. For `CC#CCO` [2-butyn-1-ol], the melting point is -2 °C. Then `Nc1ccc(Cl)c(Cl)c1` [3,4-dichloroaniline], with 72 °C; and `CCCCCCCCOc1ccc(NC(=O)c2ccc(OC)cc2)cc1` [4-methoxy-N-[4-(octyloxy)phenyl]benzamide], with 153 °C. Then `Oc1ccc(F)cc1` [4-fluorophenol], with 46 °C; and `O=C(O)/C=C(/CC(=O)O)C(=O)O` [cis-aconitic acid], with 118 °C.

The molecule `OB(O)c1cccnc1Cl` [2-chloropyridine-3-boronic acid] returned a melting point of 160 °C. Then `COC(=O)n1nc(C)cc1C` [methyl 3,5-dimethyl-1H-pyrazole-1-carboxylate], with 52 °C; and `C=CC1=C(/C=N/Nc2ccc([N+](=O)[O-])cc2[N+](=O)[O-])CCCC1`, with 153 °C. Then `Cc1cc(=O)n(-c2ccccc2)n1C` [1,5-Dimethyl-2-phenyl-1,2-dihydro-3H-pyrazol-3-one], with 110 °C. Then `Oc1cc(O)c2ccccc2c1` [1,3-dihydroxynaphthalene], with 125 °C; and `Cc1ccccc1-c1ccccc1` [1-methyl-2-phenylbenzene], with 0 °C; and `O=C(Cl)C(Cl)(Cl)Cl` [Trichloroacetyl chloride], with -146 °C. For `CNC(=O)Oc1cccc2ccccc12` [1-Naphthyl methylcarbamate], the melting point came out at 142 °C.

`CCOC(=O)C1=C(C)CC(C)=N1` [ethyl 3,5-dimethylpyrrole-2-carboxylate] displayed a melting point of 126 °C.

`C=CC=O` [acrolein] yielded a melting point of -87 °C.

In turn, `CC(C)C=O` [2-methylpropanal] showed a melting point of -65 °C. Regarding `CCC(C)c1cc([N+](=O)[O-])cc([N+](=O)[O-])c1O` (centres undefined) [2-sec-Butyl-4,6-dinitrophenol], the melting point is 55 °C. Regarding `COC(=O)c1ccc(O)cc1` [methyl 4-hydroxybenzoate], the melting point was 131 °C and 127 °C. With `N#CCc1ccc(Cc2ccccc2)cc1` [4-benzylphenylacetonitrile], the melting point stood at 36 °C.

For `CC(C)(C)OOC(=O)c1ccccc1` [tert-Butyl benzenecarboperoxoate], the melting point was determined as 8 °C. Then `CCCCCCCCC(C)O` (centres undefined) [2-decanol], with -5 °C. For `C/C=C/CC` [trans-2-pentene], the melting point is -136 °C. Then `OB(O)c1cnc(OCc2ccccc2)nc1OCc1ccccc1` [2,4-dibenzyloxypyrimidine-5-boronic acid], with 90 °C; and `O=C(CC(=O)c1ccccc1O)c1ccccc1` [benzoyl(2-hydroxybenzoyl)methane], with 120 °C. `CCOC(=O)C(=O)OCC` [diethyl oxalate] registered a melting point of -40 °C. `CC[C@H](C)[C@H](NC(=O)OCC1c2ccccc2-c2ccccc21)C(=O)O` [N-fmoc-L-isoleucine] returned a melting point of 147 °C. Molecule `O=C(O)c1cccc(OCc2ccccc2)c1` [3-benzyloxybenzoic acid] showed a melting point of 134 °C. The result for `FC(F)(F)c1cc(-c2cccs2)nc2cc(-c3cccs3)nn12` reads 159 °C; that for `Cc1ccc(C(C)C)cc1` [1-methyl-4-isopropylbenzene], -68 °C.

As to `Clc1ccc2[nH]ccc2c1` [5-chloroindole], the melting point is 71 °C.

As for `ICCI` [1,2-diiodoethane], the melting point was determined as 82 °C. The result for `CC(=O)N(C(C)=O)c1cc(/C=C/C(=O)O)ccc1/C=C/C(=O)O` reads 313 °C; that for `O=C(O)c1ccc(O)cc1` [4-Hydroxybenzoic acid], 216 °C; that for `O=c1cccccc1O` [tropolone], 53 °C.
